Like-named read-outs stand apart in the source and are kept apart here. Starred links: 1 amine or outer side, 2 acyl side, 3 side chain; linkers in the order of their positions; H or OH if unused. Positions of bridges follow the written chain, without caps; N, C: chain ends. Non-standard residues stand in square brackets, D forms with d. Residues, ends and D or L forms follow the SMILES beside them. ξ: configuration not given here. X12 = O=C([C@H](Cc1cc(Cl)c(F)c(Cl)c1)N[*:1])[*:2]; Phe(3-CF3) = N[C@@H](Cc1cccc(C(F)(F)F)c1)C(=O)O; Phe(4-CH2NH2) = NCc1ccc(C[C@H](N)C(=O)O)cc1; Phe(3-Cl) = N[C@@H](Cc1cccc(Cl)c1)C(=O)O; Pro(4,4-F2) = O=C(O)[C@@H]1CC(F)(F)CN1; Bta = N[C@@H](Cc1csc2ccccc12)C(=O)O; ξPro(4R-OH) = O=C(O)C1C[C@@H](O)CN1; Hyp = O=C(O)[C@@H]1C[C@@H](O)CN1; NMeF = CN[C@@H](Cc1ccccc1)C(=O)O; dNMeNle = CCCC[C@@H](NC)C(=O)O; NMeNle = CCCC[C@H](NC)C(=O)O; NMeM = CN[C@@H](CCSC)C(=O)O; NMeS = CN[C@@H](CO)C(=O)O; NMeA = CN[C@@H](C)C(=O)O; Orn = NCCC[C@H](N)C(=O)O; Dab = NCC[C@H](N)C(=O)O; Dap = NC[C@H](N)C(=O)O; ξPip = O=C(O)C1CCCCN1; ξC = NC(CS)C(=O)O; Sar = CNCC(=O)O
Assays:
[1] = biological target: T1, Human PD-L1/PD-1 (Homo sapiens, UniProt Q9NZQ7); test: HTRF PD-1-Ig/PD-L1-His binding assay (human PD-L1); conditions: cluster symbol; read-out: HTRF IC50 cluster
T1 construct: made in house; host or cells: HEK293T
Method in brief: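 The time-resolved fluorescence signal comes from Eu-cryptate anti-Ig (1 nM) and APC anti-His (20 nM) antibodies bound to a PD-1-Ig/PD-L1-His complex. Both partners lack transmembrane regions.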

[2] = biological target: T2, LK35.2-hPD-L1 cells / PE-labeled PD-1-Ig (Homo sapiens, UniProt Q9NZQ7); test: LK35.2-hPD-L1 cell binding high-content screening assay; format: cell-based; conditions: cluster symbol, read-out: CBA IC50 cluster
T2 construct: expressed in transfected cells; host or cells: LK35.2 mouse B cell line
Method in brief: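 Binding of PE-conjugated human PD-1-Ig (1 nM final) to human PD-L1 stably expressed on a mouse B-cell line (LK35.2) was measured by high-content imaging after washes. Compound and labeled PD-1-Ig were co-incubated 1 h at 37 °C with cells in RPMI/10% FCS.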

[3] = cell binding assay, cell line not given
[4] = cell line of CBA not given (LK35.2-hPD-L1 or 293T-hPD-L1)

T1 sequence (Q9NZQ7 with tags, fused parts or gaps): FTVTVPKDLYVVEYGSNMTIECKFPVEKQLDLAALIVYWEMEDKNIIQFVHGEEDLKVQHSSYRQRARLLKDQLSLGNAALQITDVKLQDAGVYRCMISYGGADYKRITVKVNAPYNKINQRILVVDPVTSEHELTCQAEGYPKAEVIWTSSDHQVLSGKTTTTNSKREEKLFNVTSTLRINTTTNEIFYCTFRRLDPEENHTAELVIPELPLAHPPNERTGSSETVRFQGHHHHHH
T2 sequence (Q9NZQ7 19-290): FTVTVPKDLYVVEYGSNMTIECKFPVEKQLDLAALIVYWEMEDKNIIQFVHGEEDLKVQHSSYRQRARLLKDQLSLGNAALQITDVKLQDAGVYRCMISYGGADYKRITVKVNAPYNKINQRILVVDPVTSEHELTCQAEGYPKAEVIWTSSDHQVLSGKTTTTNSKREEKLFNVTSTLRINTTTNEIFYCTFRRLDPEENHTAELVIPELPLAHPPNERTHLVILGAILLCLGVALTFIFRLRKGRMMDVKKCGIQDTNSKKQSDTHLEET

| SMILES | IC50 [1] [nM] | IC50 [2, 3] [nM] | IC50 [2, 4] [nM] |
| --- | --- | --- | --- |
| CCCC[C@H]1C(=O)N(C)[C@@H](CCCC)C(=O)N[C@@H](CCCNC(=N)N)C(=O)N[C@H](C(=O)NCC(N)=O)CSCC(=O)N[C@@H](Cc2ccc(O)cc2)C(=O)N(C)[C@@H](C)C(=O)N[C@@H](CC(N)=O)C(=O)N2CCC[C@H]2C(=O)N[C@@H](Cc2cnc[nH]2)C(=O)N[C@@H](CCCN)C(=O)N2C[C@H](O)C[C@H]2C(=O)N[C@@H](Cc2c[nH]c3ccccc23)C(=O)N[C@@H](CO)C(=O)N[C@@H](Cc2c[nH]c3ccccc23)C(=O)N1C [Example 5023] ({CH2CO}-Y[NMeA]NPH[Orn][Hyp]WSW[NMeNle][NMeNle]RCG-NH2; thioether N-14) | 6.76 to 30.3 | 4.78 to 72.9 |  |
| CCCC[C@@H]1C(=O)N(C)[C@H](CCCC)C(=O)N[C@@H](CCCNC(=N)N)C(=O)N[C@@H](C(=O)NCC(N)=O)CSCC(=O)N[C@@H](Cc2ccc(O)cc2)C(=O)N2CCCCC2C(=O)N[C@H](CC(=O)O)C(=O)N2CCC[C@H]2C(=O)N[C@H](Cc2c[nH]cn2)C(=O)N[C@@H](CCCN)C(=O)N2C[C@H](O)CC2C(=O)N[C@H](Cc2c[nH]c3ccccc23)C(=O)N[C@@H](CO)C(=O)N[C@@H](Cc2c[nH]c3ccccc23)C(=O)N1C (stereo partly drawn) [Example 1218] ({CH2CO}-Y[ξPip][dD]P[dH][Orn][ξPro(4R-OH)][dW]SW[dNMeNle][dNMeNle]R[dC]G-NH2; thioether N-14) | 6.76 to 30.3 |  | 4.78 to 72.9 |
| CCCC[C@H]1C(=O)N[C@@H](CCCNC(=N)N)C(=O)NC(C(=O)NCC(N)=O)CSCC(=O)N[C@@H](Cc2ccc(O)cc2)C(=O)N(C)[C@@H](C)C(=O)N[C@@H](CC(N)=O)C(=O)N2CCC[C@H]2C(=O)N[C@@H](Cc2cnc[nH]2)C(=O)N[C@@H](CO)C(=O)N2CCC[C@H]2C(=O)N[C@@H](Cc2c[nH]c3ccccc23)C(=O)N[C@@H](CO)C(=O)N[C@@H](Cc2c[nH]c3ccccc23)C(=O)N(C)[C@@H](CCSC)C(=O)N1C (stereo partly shown) [Example 9109] ({CH2CO}-Y[NMeA]NPHSPWSW[NMeM][NMeNle]R[ξC]G-NH2; thioether N-14) | 6.76 to 30.3 | 4.78 to 72.9 |  |
| CCCC[C@H]1C(=O)N(C)[C@@H](CCCC)C(=O)N[C@@H](CCCNC(=N)N)C(=O)N[C@H](C(=O)NCC(N)=O)CSCC(=O)N[C@@H](Cc2ccccc2)C(=O)N(C)[C@@H](C)C(=O)N[C@@H](CC(N)=O)C(=O)N2CC(F)(F)C[C@H]2C(=O)N[C@@H](Cc2cnc[nH]2)C(=O)N[C@@H](CC(C)C)C(=O)N(C)CC(=O)N[C@@H](Cc2c[nH]c3ccccc23)C(=O)N[C@@H](CO)C(=O)N[C@@H](Cc2c[nH]c3ccccc23)C(=O)N1C [Example 1112] ({CH2CO}-F[NMeA]N[Pro(4,4-F2)]HL[Sar]WSW[NMeNle][NMeNle]RCG-NH2; thioether N-14) | > 30.5 |  | > 74.3 |
| CCCC[C@H]1C(=O)N(C)[C@@H](CCCC)C(=O)N[C@@H](CC(C)C)C(=O)N[C@H](C(=O)NCC(N)=O)CSCC(=O)N[C@@H](Cc2ccc(O)cc2)C(=O)N(C)[C@@H](C)C(=O)N[C@@H](CC(N)=O)C(=O)N2CCC[C@H]2C(=O)N[C@@H](CO)C(=O)N[C@@H](CC(C)C)C(=O)N2C[C@H](O)C[C@H]2C(=O)N[C@@H](Cc2c[nH]c3ccccc23)C(=O)N[C@@H](CCN)C(=O)N[C@@H](Cc2c[nH]c3ccccc23)C(=O)N1C [Example 5073] ({CH2CO}-Y[NMeA]NPSL[Hyp]W[Dab]W[NMeNle][NMeNle]LCG-NH2; thioether N-14) | 0.385 to 6.74 | 0.158 to 4.71 |  |
| CCCC[C@@H]1NC(=O)[C@H](Cc2ccc(O)cc2)NC(=O)[C@H](Cc2c[nH]c3ccccc23)NC(=O)CN(C)C(=O)[C@H](Cc2ccc(O)cc2)NC(=O)[C@H](Cc2ccccc2)N(C)C(=O)[C@H](C(C)C)NC(=O)[C@H](CC(=O)O)NC(=O)CN(C)C(=O)[C@H](CCCC)N(C)C(=O)[C@H](Cc2ccccc2)N(C)C(=O)[C@H](Cc2ccccc2)NC(=O)CSC[C@@H](C(=O)NCC(N)=O)NC1=O [Example 3097] (HELM PEPTIDE1{[O=C(C[*:3])[*:2]].F.[meF].[CCCC[C@@H](C(=O)[*:2])N(C)[*:1]].[Sar].D.V.[meF].Y.[Sar].W.Y.[Nle].C.G.[am]}$PEPTIDE1,PEPTIDE1,1:R3-14:R3$$$V2.0) | 6.76 to 30.3 |  | 4.78 to 72.9 |
| CCCC[C@H]1C(=O)N(C)[C@@H](CCCC)C(=O)N[C@@H](CN)C(=O)N[C@H](C(=O)NCC(N)=O)CSCC(=O)N[C@@H](Cc2ccc(O)cc2)C(=O)N(C)[C@@H](C)C(=O)N[C@@H](CC(N)=O)C(=O)N2CCC[C@H]2C(=O)N[C@@H](CN)C(=O)N[C@@H](CCC(=O)O)C(=O)N2C[C@H](O)C[C@H]2C(=O)N[C@@H](Cc2c[nH]c3ccccc23)C(=O)N[C@@H](CO)C(=O)N[C@@H](Cc2c[nH]c3ccccc23)C(=O)N1C [Example 5061] ({CH2CO}-Y[NMeA]NP[Dap]E[Hyp]WSW[NMeNle][NMeNle][Dap]CG-NH2; thioether N-14) | 0.385 to 6.74 | 0.158 to 4.71 |  |
| CCCC[C@H]1C(=O)N(C)[C@@H](CCCC)C(=O)N[C@@H](CCCNC(=N)N)C(=O)N[C@H](C(=O)NCC(N)=O)CSCC(=O)N[C@@H](Cc2ccccc2)C(=O)N(C)[C@@H](C)C(=O)N[C@@H](CCC(N)=O)C(=O)N2CCC[C@H]2C(=O)N[C@@H](Cc2cnc[nH]2)C(=O)N[C@@H](CC(C)C)C(=O)N(C)CC(=O)N[C@@H](Cc2c[nH]c3ccccc23)C(=O)N[C@@H](CO)C(=O)N[C@@H](Cc2c[nH]c3ccccc23)C(=O)N1C [Example 1089] ({CH2CO}-F[NMeA]QPHL[Sar]WSW[NMeNle][NMeNle]RCG-NH2; thioether N-14) | > 30.5 |  | > 74.3 |
| CCCC[C@H]1C(=O)N(C)CC(=O)N[C@@H](CC(=O)O)C(=O)N[C@@H](C(C)C)C(=O)N[C@@H](Cc2cccc(Cl)c2)C(=O)N[C@@H](Cc2ccc(O)cc2)C(=O)N(C)CC(=O)N[C@@H](Cc2c[nH]c3ccccc23)C(=O)N[C@@H](Cc2ccc(O)cc2)C(=O)N[C@@H](CC(C)C)C(=O)N[C@H](C(=O)NCC(N)=O)CSCC(=O)N[C@@H](Cc2ccccc2)C(=O)N(C)[C@@H](Cc2ccccc2)C(=O)N1C [Example 3131] ({CH2CO}-F[NMeF][NMeNle][Sar]DV[Phe(3-Cl)]Y[Sar]WYLCG-NH2; thioether N-13) | > 30.5 |  | > 74.3 |
| CCCC[C@H]1C(=O)N[C@@H](C)C(=O)NC(C(=O)NCC(N)=O)CSCC(=O)N[C@@H](Cc2ccc(O)cc2)C(=O)N(C)[C@@H](C)C(=O)N[C@@H](CC(N)=O)C(=O)N2CCC[C@H]2C(=O)N[C@@H](CN)C(=O)N[C@@H](CC(C)C)C(=O)N2CCC[C@H]2C(=O)N[C@@H](Cc2c[nH]c3ccccc23)C(=O)N[C@@H](CO)C(=O)N[C@@H](Cc2c[nH]c3ccccc23)C(=O)N(C)[C@@H](CCSC)C(=O)N1C (stereo partly shown) [Example 9093] ({CH2CO}-Y[NMeA]NP[Dap]LPWSW[NMeM][NMeNle]A[ξC]G-NH2; thioether N-14) | 6.76 to 30.3 | 4.78 to 72.9 |  |
| CCCC[C@H]1C(=O)N(C)[C@@H](COCC)C(=O)N[C@@H](CCCNC(=N)N)C(=O)NC(C(=O)NCC(N)=O)CSCC(=O)N[C@@H](Cc2ccc(O)cc2)C(=O)N(C)[C@@H](C)C(=O)N[C@@H](CC(N)=O)C(=O)N2CCC[C@H]2C(=O)N[C@@H](Cc2cnc[nH]2)C(=O)N[C@@H](CC(C)C)C(=O)N2CCC[C@H]2C(=O)N[C@@H](Cc2c[nH]c3ccccc23)C(=O)N[C@@H](CO)C(=O)N[C@@H](Cc2csc3ccccc23)C(=O)N1C (stereo partly shown) [Example 9040] ({CH2CO}-Y[NMeA]NPHLPWS[Bta][NMeNle][NMeS](Et)R[ξC]G-NH2; thioether N-14) | 0.385 to 6.74 | 0.158 to 4.71 |  |
| CCCC[C@H]1C(=O)N(C)CC(=O)N[C@@H](CC(=O)O)C(=O)N[C@@H](C(C)C)C(=O)N(C)[C@@H](Cc2ccccc2)C(=O)N[C@@H](Cc2ccc(O)cc2)C(=O)N(C)CC(=O)N[C@@H](Cc2c[nH]c3ccccc23)C(=O)N[C@@H](Cc2ccc(O)cc2)C(=O)N[C@@H](CC(C)C)C(=O)N[C@H](C(=O)NCC(N)=O)CSCC(=O)N[C@@H](Cc2cccc(C(F)(F)F)c2)C(=O)N(C)[C@@H](Cc2ccccc2)C(=O)N1C [Example 3106] ({CH2CO}-[Phe(3-CF3)][NMeF][NMeNle][Sar]DV[NMeF]Y[Sar]WYLCG-NH2; thioether N-13) | > 30.5 |  | 4.78 to 72.9 |
| CCCC[C@H]1C(=O)N(C)CC(=O)N[C@@H](CC(=O)O)C(=O)N[C@@H](C(C)C)C(=O)N[C@@H](Cc2ccc(CN)cc2)C(=O)N[C@@H](Cc2ccc(O)cc2)C(=O)N(C)CC(=O)N[C@@H](Cc2c[nH]c3ccccc23)C(=O)N[C@@H](Cc2ccc(O)cc2)C(=O)N[C@@H](CC(C)C)C(=O)N[C@H](C(=O)NCC(N)=O)CSCC(=O)N[C@@H](Cc2ccccc2)C(=O)N(C)[C@@H](Cc2ccccc2)C(=O)N1C [Example 3523] ({CH2CO}-F[NMeF][NMeNle][Sar]DV[Phe(4-CH2NH2)]Y[Sar]WYLCG-NH2; thioether N-13) | > 30.5 | > 74.3 |  |
| CCCC[C@H]1C(=O)N(C)CC(=O)N[C@@H](CC(=O)O)C(=O)N[C@@H](C(C)C)C(=O)N(C)[C@@H](Cc2ccccc2)C(=O)N[C@@H](Cc2ccc(O)cc2)C(=O)N(C)CC(=O)N[C@@H](Cc2c[nH]c3ccccc23)C(=O)N[C@@H](Cc2ccc(O)cc2)C(=O)N[C@@H](CC(C)C)C(=O)N[C@H](C(=O)NCC(N)=O)CSCC(=O)N[C@@H](Cc2cc(Cl)c(F)c(Cl)c2)C(=O)N(C)[C@@H](Cc2ccccc2)C(=O)N1C [Example 3185] ({CH2CO}-[X12][NMeF][NMeNle][Sar]DV[NMeF]Y[Sar]WYLCG-NH2; thioether N-13) | 6.76 to 30.3 |  | 4.78 to 72.9 |
